# Measured values taken from the supplement of paper PMC8882468.
# ± gives the standard deviation of the averaged measurements.
# Tested on: HCI-005.E2 (organoid from a breast cancer xenograft with a HER2-positive history)
# Assay: CTG-3D luminescence at 96 h relative to day-0 seeding control (ratio to day 0); higher = more growth / less cytotoxicity; PDxO 3D drug screen (set 2), 96 h, CTG-3D normalised to day-0 seeding control.
# Details: 12.5 pM
row,Compound,CTG-3D luminescence at 96 h
1,COc1cccc2c1C(=O)c1c(O)c3c(c(O)c1C2=O)C[C@@](O)(C(=O)CO)C[C@@H]3O[C@H]1C[C@H](N)[C@@H](O)[C@H](C)O1 [epirubicin],1.54 ± 0.3
2,CC(=O)c1c(C)c2cnc(Nc3ccc(N4CCNCC4)cn3)nc2n(C2CCCC2)c1=O [palbociclib],1.84 ± 0.44
3,O=C(c1cc(Cc2n[nH]c(=O)c3ccccc23)ccc1F)N1CCN(C(=O)C2CC2)CC1 [olaparib],1.62 ± 0.31

# Same assay, conditions: 0.00025 µM
row,Compound,CTG-3D luminescence at 96 h
1,COc1cccc2c1C(=O)c1c(O)c3c(c(O)c1C2=O)C[C@@](O)(C(=O)CO)C[C@@H]3O[C@H]1C[C@H](N)[C@@H](O)[C@H](C)O1 [epirubicin],1.65 ± 0.21
2,CC(=O)c1c(C)c2cnc(Nc3ccc(N4CCNCC4)cn3)nc2n(C2CCCC2)c1=O [palbociclib],2.56 ± 0.47
3,O=C(c1cc(Cc2n[nH]c(=O)c3ccccc23)ccc1F)N1CCN(C(=O)C2CC2)CC1 [olaparib],2.3 ± 0.1

# Same assay, conditions: 0.005 µM
row,Compound,CTG-3D luminescence at 96 h
1,COc1cccc2c1C(=O)c1c(O)c3c(c(O)c1C2=O)C[C@@](O)(C(=O)CO)C[C@@H]3O[C@H]1C[C@H](N)[C@@H](O)[C@H](C)O1 [epirubicin],1.41 ± 0.32
2,CC(=O)c1c(C)c2cnc(Nc3ccc(N4CCNCC4)cn3)nc2n(C2CCCC2)c1=O [palbociclib],2.41 ± 0.23
3,O=C(c1cc(Cc2n[nH]c(=O)c3ccccc23)ccc1F)N1CCN(C(=O)C2CC2)CC1 [olaparib],2.07 ± 0.48

# Same assay, conditions: 0.1 µM
row,Compound,CTG-3D luminescence at 96 h
1,COc1cccc2c1C(=O)c1c(O)c3c(c(O)c1C2=O)C[C@@](O)(C(=O)CO)C[C@@H]3O[C@H]1C[C@H](N)[C@@H](O)[C@H](C)O1 [epirubicin],0.977 ± 0.16
2,CC(=O)c1c(C)c2cnc(Nc3ccc(N4CCNCC4)cn3)nc2n(C2CCCC2)c1=O [palbociclib],3.06 ± 0.6
3,O=C(c1cc(Cc2n[nH]c(=O)c3ccccc23)ccc1F)N1CCN(C(=O)C2CC2)CC1 [olaparib],2.39 ± 0.73

# Same assay, conditions: 1 µM
row,Compound,CTG-3D luminescence at 96 h
1,COc1cccc2c1C(=O)c1c(O)c3c(c(O)c1C2=O)C[C@@](O)(C(=O)CO)C[C@@H]3O[C@H]1C[C@H](N)[C@@H](O)[C@H](C)O1 [epirubicin],0.0317 ± 0.023
2,CC(=O)c1c(C)c2cnc(Nc3ccc(N4CCNCC4)cn3)nc2n(C2CCCC2)c1=O [palbociclib],2.51 ± 0.76
3,O=C(c1cc(Cc2n[nH]c(=O)c3ccccc23)ccc1F)N1CCN(C(=O)C2CC2)CC1 [olaparib],2.1 ± 0.81

# Same assay, conditions: 10 µM
row,Compound,CTG-3D luminescence at 96 h
1,COc1cccc2c1C(=O)c1c(O)c3c(c(O)c1C2=O)C[C@@](O)(C(=O)CO)C[C@@H]3O[C@H]1C[C@H](N)[C@@H](O)[C@H](C)O1 [epirubicin],0.00772 ± 0.0044
2,CC(=O)c1c(C)c2cnc(Nc3ccc(N4CCNCC4)cn3)nc2n(C2CCCC2)c1=O [palbociclib],2.16 ± 0.63
3,O=C(c1cc(Cc2n[nH]c(=O)c3ccccc23)ccc1F)N1CCN(C(=O)C2CC2)CC1 [olaparib],1.27 ± 0.27

# Same assay, conditions: 100 µM
row,Compound,CTG-3D luminescence at 96 h
1,COc1cccc2c1C(=O)c1c(O)c3c(c(O)c1C2=O)C[C@@](O)(C(=O)CO)C[C@@H]3O[C@H]1C[C@H](N)[C@@H](O)[C@H](C)O1 [epirubicin],-0.000128 ± 0.0015
2,CC(=O)c1c(C)c2cnc(Nc3ccc(N4CCNCC4)cn3)nc2n(C2CCCC2)c1=O [palbociclib],0.934 ± 0.87
3,O=C(c1cc(Cc2n[nH]c(=O)c3ccccc23)ccc1F)N1CCN(C(=O)C2CC2)CC1 [olaparib],0.485 ± 0.14

# Same assay, conditions: 625 fM
row,Compound,CTG-3D luminescence at 96 h
1,COc1cccc2c1C(=O)c1c(O)c3c(c(O)c1C2=O)C[C@@](O)(C(=O)CO)C[C@@H]3O[C@H]1C[C@H](N)[C@@H](O)[C@H](C)O1 [epirubicin],1.98 ± 0.62
2,CC(=O)c1c(C)c2cnc(Nc3ccc(N4CCNCC4)cn3)nc2n(C2CCCC2)c1=O [palbociclib],2.38 ± 0.57
3,O=C(c1cc(Cc2n[nH]c(=O)c3ccccc23)ccc1F)N1CCN(C(=O)C2CC2)CC1 [olaparib],2.24 ± 0.56

# Tested on: HCI-019 (organoid from a triple-negative breast cancer xenograft)
# Assay: as above
# Details: 12.5 pM; days in culture: 173
row,Compound,CTG-3D luminescence at 96 h
1,COc1cccc2c1C(=O)c1c(O)c3c(c(O)c1C2=O)C[C@@](O)(C(=O)CO)C[C@@H]3O[C@H]1C[C@H](N)[C@@H](O)[C@H](C)O1 [epirubicin],2.56
2,CC(=O)c1c(C)c2cnc(Nc3ccc(N4CCNCC4)cn3)nc2n(C2CCCC2)c1=O [palbociclib],2.68
3,O=C(c1cc(Cc2n[nH]c(=O)c3ccccc23)ccc1F)N1CCN(C(=O)C2CC2)CC1 [olaparib],2.78

# Same assay, conditions: 12.5 pM; days in culture: 194
row,Compound,CTG-3D luminescence at 96 h
1,COc1cccc2c1C(=O)c1c(O)c3c(c(O)c1C2=O)C[C@@](O)(C(=O)CO)C[C@@H]3O[C@H]1C[C@H](N)[C@@H](O)[C@H](C)O1 [epirubicin],1.08
2,CC(=O)c1c(C)c2cnc(Nc3ccc(N4CCNCC4)cn3)nc2n(C2CCCC2)c1=O [palbociclib],3.12
3,O=C(c1cc(Cc2n[nH]c(=O)c3ccccc23)ccc1F)N1CCN(C(=O)C2CC2)CC1 [olaparib],0.984

# Same assay, conditions: 12.5 pM; days in culture: 215
row,Compound,CTG-3D luminescence at 96 h
1,COc1cccc2c1C(=O)c1c(O)c3c(c(O)c1C2=O)C[C@@](O)(C(=O)CO)C[C@@H]3O[C@H]1C[C@H](N)[C@@H](O)[C@H](C)O1 [epirubicin],1.08
2,CC(=O)c1c(C)c2cnc(Nc3ccc(N4CCNCC4)cn3)nc2n(C2CCCC2)c1=O [palbociclib],1.93
3,O=C(c1cc(Cc2n[nH]c(=O)c3ccccc23)ccc1F)N1CCN(C(=O)C2CC2)CC1 [olaparib],2

# Same assay, conditions: 0.00025 µM; days in culture: 173
row,Compound,CTG-3D luminescence at 96 h
1,COc1cccc2c1C(=O)c1c(O)c3c(c(O)c1C2=O)C[C@@](O)(C(=O)CO)C[C@@H]3O[C@H]1C[C@H](N)[C@@H](O)[C@H](C)O1 [epirubicin],0.82
2,CC(=O)c1c(C)c2cnc(Nc3ccc(N4CCNCC4)cn3)nc2n(C2CCCC2)c1=O [palbociclib],2.28
3,O=C(c1cc(Cc2n[nH]c(=O)c3ccccc23)ccc1F)N1CCN(C(=O)C2CC2)CC1 [olaparib],1.9

# Same assay, conditions: 0.00025 µM; days in culture: 194
row,Compound,CTG-3D luminescence at 96 h
1,COc1cccc2c1C(=O)c1c(O)c3c(c(O)c1C2=O)C[C@@](O)(C(=O)CO)C[C@@H]3O[C@H]1C[C@H](N)[C@@H](O)[C@H](C)O1 [epirubicin],1.73
2,CC(=O)c1c(C)c2cnc(Nc3ccc(N4CCNCC4)cn3)nc2n(C2CCCC2)c1=O [palbociclib],1.02
3,O=C(c1cc(Cc2n[nH]c(=O)c3ccccc23)ccc1F)N1CCN(C(=O)C2CC2)CC1 [olaparib],1.95

# Same assay, conditions: 0.00025 µM; days in culture: 215
row,Compound,CTG-3D luminescence at 96 h
1,COc1cccc2c1C(=O)c1c(O)c3c(c(O)c1C2=O)C[C@@](O)(C(=O)CO)C[C@@H]3O[C@H]1C[C@H](N)[C@@H](O)[C@H](C)O1 [epirubicin],1.32
2,CC(=O)c1c(C)c2cnc(Nc3ccc(N4CCNCC4)cn3)nc2n(C2CCCC2)c1=O [palbociclib],1.31
3,O=C(c1cc(Cc2n[nH]c(=O)c3ccccc23)ccc1F)N1CCN(C(=O)C2CC2)CC1 [olaparib],2.06

# Same assay, conditions: 0.005 µM; days in culture: 173
row,Compound,CTG-3D luminescence at 96 h
1,COc1cccc2c1C(=O)c1c(O)c3c(c(O)c1C2=O)C[C@@](O)(C(=O)CO)C[C@@H]3O[C@H]1C[C@H](N)[C@@H](O)[C@H](C)O1 [epirubicin],0.796
2,CC(=O)c1c(C)c2cnc(Nc3ccc(N4CCNCC4)cn3)nc2n(C2CCCC2)c1=O [palbociclib],1.24
3,O=C(c1cc(Cc2n[nH]c(=O)c3ccccc23)ccc1F)N1CCN(C(=O)C2CC2)CC1 [olaparib],2.2

# Same assay, conditions: 0.005 µM; days in culture: 194
row,Compound,CTG-3D luminescence at 96 h
1,COc1cccc2c1C(=O)c1c(O)c3c(c(O)c1C2=O)C[C@@](O)(C(=O)CO)C[C@@H]3O[C@H]1C[C@H](N)[C@@H](O)[C@H](C)O1 [epirubicin],0.897
2,CC(=O)c1c(C)c2cnc(Nc3ccc(N4CCNCC4)cn3)nc2n(C2CCCC2)c1=O [palbociclib],3.29
3,O=C(c1cc(Cc2n[nH]c(=O)c3ccccc23)ccc1F)N1CCN(C(=O)C2CC2)CC1 [olaparib],2.68
